The conditions of data set [1]: male, Sprague-Dawley, rat, in vivo, po, 100 mg/kg.
Protocol: (§1) In another study, a single intravenous dose of two compounds was given to rats (N=3) at 30 mg/ml dosage following administration through the lateral tail vein in order to obtain the absolute oral bioavailability and clearance parameters. Compounds (10 mg/mL) was dissolved in 30% DMSO for IV injection and suspended in 0.5% CMC-Na for IG respectively.
Data set [2] has as its system smoke induced COPD mice model. The data set can be described thus: Smoke induced COPD mice model. The data set is classed as in vivo, C57BL/6 J mice. As for the experimental part: The commercial non-filtered cigarettes containing 11 mg tar and 0.9 mg nicotine per cigarette were used in this study. Eight-week-old male C57BL/6 J mice (purchased from Shanghai Xipuer Yibikai animal Co) were divided into four groups as follows: Group 1 was the control group(NS6m), Group 2 was the animal model CS group(CS6m), Groups 3 was CS+Compound A 100 mpk group(LY100), Group 4 was CS+erythromycin group(EM100). Mice were placed in a Plexiglass chamber covered by a disposable filter. The animals received CS of 5 cigarettes/time, carried out twice per day and 5 days a week for 24 weeks. Mainstream CS was generated by an exposure system in which combustion of the cigarette was drawn into the mouse chambers via a peristaltic pump. In group 3 and 4, mice were orally administrated with Compound A (100 mg/kg) twice per day from the 12th week to 24th week. One week after the last CS exposure, animals were sacrificed by intraperitoneal injection of 10% chloral hydrate for the plasma, bronchoalveolar lavage fluid (BALF) and lung tissues collection.
The lung tissues were collected and inflated with 4% paraformaldehyde at a pressure of 25 cmH2O, fixed for 24 h in formalin, embedded with paraffin, sectioned in the sagittal plane, and stained with hematoxylin and eosin (H & E). Alveolus enlargement was quantified by measurement of the mean chord length of alveoli with Analysis software Image J (see FIGS. 5 & 6).
For the bronchoalveolar lavage fluid collection, lungs were lavaged with 1 ml of saline, and the resulting BALF was centrifuged at 3000 g for 15 minutes. Cells were washed three times and then analyzed on a ThermoFisher Countess II cytometer.

For data set [3], the system named is THP-1 cell. As to the kind of experiment: Differentiation of monocyte to macrophage in THP-1 cell line. The data set is classed as cell-based. Particulars: in words. As for the experimental part: The THP-1 cell line was purchased from ATCC (American Type Culture Collection, Manassas, Va.). Cells were maintained in growth medium (RPMI-1640) with supplemented with 10% heat inactivated bovine serum, 100× Glutamax medium and 0.05 mM β-Mercaptoethanol at 37° C. under 5% CO2. Compounds were dissolved in 0.1% DMSO. Erythromycin was used as a positive control.
For the assessment of the effect of compounds of the present invention on differentiation of monocyte to macrophage in THP-1 cell line, cells were collected and centrifuged at 900 rpm for 4 minutes. The cell density was adjusted to 2.5×10^5/mL. cell suspension of 400 μL was added to each well of 48-well plate following the plate layout. PMA 1 mg, a compound can induce monocyte differentiation, was dissolved in 10 mL DMSO to form 100 μg/mL solution and aliquote it into 1 mL per vial. 1 mL solution can be further aliquoted into 10 μL per vial and stored the aliquots at −20° C. Make 10-fold dilution of PMA with DMSO and then 500-fold dilution with complete medium. 50 μL solution were then added to each well of 48-well plate following the plate layout. Erythromycin and compounds of examples at stock concentration of 10 mM was serially diluted at 10-fold in DMSO. 50 μL solution was added to each well of 48-well plate following the plate layout. After 96 hrs incubation at 37° C., 5% CO2, the plate was washed with DPBS for three times to remove non-adherent cells for three times. Complete medium 180 μL and alarmar blue 20 μL was added to each well. The fluorescent intensity was read at excitation 530 nm and emission 590 nm using PerkinElmer Victor3 after 3 hours plate incubation.
The differentiation activity of compounds of Examples is compared to that of 100 μM erythromycin and the results are shown in FIG. 1 and Table 3.

Data set [4] can be described thus: in vivo. Particulars: Sprague-Dawley, rat.
Protocol: as §1
In data set [5] the test system is Streptococcus pyogenes ATCC BAA-572. The data set can be described thus: Antibacterial activity, agar dilution MIC. Particulars: ATCCBAA572, 20-24 hrs incubation, read-out: minimum inhibitory concentration MIC. The data set is classed as cell-based. As for the experimental part:
The antibacterial activity of Erythromycin and compounds of examples were evaluated by the agar dilution method, following the guidelines of the CLSI. […] Briefly, bacteria were grown overnight in adapted media (MHIIA with 5% of sheep blood for Streptococcus pneumoniae and Haemophilus influenzae, and MHIIA for the other bacteria strains) at 35° C., 5% CO2.
Cultures were centrifuged at 3000×g for 15 min. Pellets were diluted with 5 mls cold PBS and the OD600nm was adjusted to 10^8 CFU.mL^−1 with a spectrometer. Bacteria were then added to 96-well test plates. Compounds were diluted in DMSO in a 2 fold steps from 20 mg/ml in DMSO in 96 well plated and transferred to the test plate. During the incubation, the plate was maintained at 35° C., 5% CO2.
The MICs for Erythromycin and compounds of examples were determined after 20-24 hrs incubation.

The test system of data set [6] is IL-8 expression in BEAS-2B cell. The data set can be described thus: LPS induced IL-8 release by BEAS-2B (ELISA). The data set is classed as cell-based. Particulars: in words; BEAS-2B. As for the experimental part:
The inhibitory effect of compounds of Examples on the IL-8 expression in BEAS-2B cell was tested using the following method. BEAS-2B was purchased from ATCC (American Type Culture Collection, Manassas, Va.). Cells were maintained in growth medium (LHC-9) and cultured at 37° C. under 5% CO2. Compounds were dissolved in 0.1% DMSO. Erythromycin was used as a positive control.
For the assessment of the effect of compounds of Examples on IL-8 expression inhibition in BEAS-2B cell line, cells were plated in 24 well plate at a density of 100,000/mL, in a final volume of 1 mL of assay medium. Cells were incubated at 37° C., 5% CO2 for 1 day. After the incubation, compounds were added at day 2 and LPS was added at day 3. A compound source plate was prepared by triplicate five-point 10-fold or 2-fold serial dilutions in DMSO, beginning at 1 mM (final top concentration of compounds of Examples in the assay was 100 μM and the DMSO was 0.1%). The positive control consisted of cells treated with 100 μM erythromycin and negative control was consisted of 0.1% DMSO treated cells. LPS stock solution at 5 mg/mL was made by dissolving 10 mg of LPS powder into 2 mL of ddH2O and aliquoted to 100 μL per vial. Final concentration of LPS in the assay was […] by making 125-fold dilution of stock solution with medium.
Specific immunoreactivity for IL-8 in culture supernatants were measured by a commercially available ELISA kits (R&D Systems, Inc., Minneapolis, Minn.). Each sample was assayed in duplicates as recommended by the manufacture. The concentration of compounds of Examples inhibiting IL-8 production on BEAS-2B by 10% was estimated from a 4-parametric of the normalized dose response curve. (IC10)

Structures are written as SMILES. Where only a bound is given, the exact number is not on record here.

`CC[C@H]1OC(=O)[C@H](C)[C@@H](O[C@H]2C[C@@](C)(OC)[C@@H](O)[C@H](C)O2)[C@H](C)[C@@H](O[C@@H]2O[C@H](C)C[C@H](N(C)C)[C@H]2O)[C@](C)(O)C[C@@H](C)C(=O)[C@H](C)[C@@H](O)[C@]1(C)O` [Erythromycin, reference compound] gave a F in data set [1] of 21.8%. Besides, the “inflammatory cell infiltration and enlargement of alveolus (lung histology)” value in data set [2] (100 mg/kg orally twice per day, 12th to 24th week, vs CS group) was “significantly attenuated”. Further, the “total cell count and number of macrophages and neutrophils in BALF” value in data set [2] (100 mg/kg orally twice per day, compared to the smoking group) is “significantly lower”. Moreover, in data set [2] (oral administration of 100 mg/kg, 24 weeks smoke exposure), the “airway resistance and total lung capacity” value is “reduced two parameters and partially recovered lung function”. The “effect on THP-1 cell differentiation” value in data set [3] is “promotional effect on THP-1 cell differentiation in a dose dependent manner”. Further, the clearance in data set [4] (iv) came out at 50.2 mL/min/kg. In data set [4] (male, po, 100 mg/kg), the AUC(0-inf) was 7250 ng·h/mL, the AUC(0-t) amounted to 7240 ng·h/mL, the peak level (Cmax) was 2530 ng/mL and the Tmax came out at 2 h. The half-life in data set [4] (male, po, 100 mg/kg) was 0.93 h. For the same compound, in data set [5], the MIC is under 0.125 µg/mL. Moreover, the “LPS-induced IL-8 release” value in data set [6] is recorded as “significantly inhibited”.

These data come from US20230068020A1, “MACROLIDE COMPOUND AND ITS USE OF TREATMENT CHRONIC RESPIRATORY DISEASE” (priority 2020, published 2023).
